The test has as its target T1, Human CB2 receptors (Homo sapiens, UniProt P34972).
T1 construct: expressed in transfected cells; host or cells: CHO cells
In words: In vitro signaling assay: inhibition of forskolin-induced cAMP production in human CB2 receptor expressing CHO cells. Format: cell-based. Conditions: inhibition of 10 μM forskolin-induced cAMP production, human CB2 receptors expressed CHO cells, cAMP EIA. As for the experimental part:
It was confirmed by the following experiment that the compound of formula (I) of the present invention has CB2 receptor agonist activity.
Method for the Experiment:
Human CB2 receptors expressed CHO cells were used for the assays. Cells were dispersed seeded in 96-well plates in a density of 5×10^4 cells/well, and were subjected to experiment the next day. After removing the culture media 1 mM isobutylmethylxanthine (IBMX) solution was added, and cells were incubated for 10 minutes at room temperature. Next, a mixture of 10 μM forskolin and the compound of the present invention was added. After additional incubation for 15 minutes at room temperature, the culture supernatant was discarded and 200 μl of lysis reagent (attached to a cAMP EIA) was added. The amounts of cAMP of the lysate were determined by a cAMP EIA kit (Amersham) under conditions of the forskolin-induced cAMP production. The compound of the present invention was dissolved in DMSO and the solution was diluted to adjust the final concentration of DMSO to 0.1%. IC50 values were calculated from the inhibitory ratio of the compound of the present invention toward the amount of the forskolin-induced cAMP production. By the same experiment using CHO cells, it was confirmed that this inhibitory effect toward cAMP production by the compound was mediated via the human CB2 receptors.
(cAMP levels reflect the balance of adenylyl cyclase and phosphodiesterase activity.)
T1 sequence (P34972 whole entry): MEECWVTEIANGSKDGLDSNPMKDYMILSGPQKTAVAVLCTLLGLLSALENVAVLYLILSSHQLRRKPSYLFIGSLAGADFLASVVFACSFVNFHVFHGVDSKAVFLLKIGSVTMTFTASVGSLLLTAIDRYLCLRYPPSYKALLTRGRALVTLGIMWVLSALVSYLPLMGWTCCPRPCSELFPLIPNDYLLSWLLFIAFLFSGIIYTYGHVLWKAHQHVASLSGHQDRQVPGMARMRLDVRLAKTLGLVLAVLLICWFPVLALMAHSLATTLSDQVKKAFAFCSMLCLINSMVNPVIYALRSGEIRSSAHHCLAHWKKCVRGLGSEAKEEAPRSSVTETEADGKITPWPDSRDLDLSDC
For orientation: IC50 means the midpoint of a concentration-inhibition curve. A high value points to weaker potency. As for `CC1(C)Cc2ccccc2/C(=C/C(=O)C2CCCCCC2)N1` [1(11), (Z)-2-(3,3-dimethyl-3,4-dihydro-(2H)-isoquinolin-1-ylidene)-1-cycloheptylethan-1-one], the IC50 came out at 0.4 nM.

In the case of `O=C(/C=C1\NC2(CCOCC2)Cc2ccccc21)c1ccccc1` [1(33), (Z)-2-(spiro[3,4-dihydro-(2H)-isoquinolin-3,4′-3,4,5,6-tetrahydropyran]-1-ylidene)-1-phenylethan-1-one], the IC50 is 0.8 nM.

Consider `CC1(C)Cc2ccccc2/C(=C/C(=O)C2CCCCC2)N1` [compound 1], for which the IC50 was 2.4 nM.

Source of the values: US6956033B2, “3,4-dihydroisoquinoline derivative compound and a pharmaceutical agent comprising it as active ingredient” (Ono Pharmaceutical Co., Ltd., priority 2000, dated 2005).
